In US8466089B2, “Pyrazole compounds, process for their production and herbicides containing them” (Ishihara Sangyo Kaisha, Ltd., priority 2008, dated 2013):

Experiments:
Type in all cases: in vivo
[1] = tested on: redroot pigweed (Amaranthus retroflexus L.); assay: Test Example 2, soil application on the day after sowing; settings: 21st to 22nd day after application, visual, read-out: Growth inhibition rate (%) Redroot pigweed
Excerpt: (§1) Upland field soil was put into a 1/170,000 hectare pot, and seeds of various plants (barnyardgrass (Echinochloa crus-galli L.), crabgrass (Digitaria sanquinalis L.), green foxtail (Setaria viridis L.), redroot pigweed (Amaranthus retroflexus L.), prickly sida (Sida spinosa L.), velvetleaf (Abutilon theophrasti MEDIC.), rice (Oryza sativa L.), corn (Zea mays L.), soybean (Glycine max Merr.)) and wheat (Triticum spp.) were sown. On the day after sowing, wettable powders or emulsifiable concentrates of the compounds of the present invention prepared in accordance with a conventional preparation method, were weighed so that the active ingredients became the prescribed amounts, and diluted with water in an amount corresponding to 500 liter per 1 hectare, followed by soil application with a small sprayer.
(§2) On the 21st to 22nd day after the application, the state of growth of the respective plants was visually observed, and the herbicidal effect was evaluated by a growth inhibition rate (%) of from 0 (equivalent to the non-treated area) to 100% (complete kill).

wheat (Triticum spp.) [2] = assay: as above; settings: 21st to 22nd day after application, visual, read-out: Growth inhibition rate (%) Wheat
Excerpt: as §1, §2

[3] = tested on: velvetleaf (Abutilon theophrasti MEDIC.); assay: as above; settings: 21st to 22nd day after application, visual, read-out: Growth inhibition rate (%) Velvetleaf
Excerpt: as §1, §2

[4] = tested on: prickly sida (Sida spinosa L.); assay: as above; settings: 21st to 22nd day after application, visual, read-out: Growth inhibition rate (%) Prickly sida
Excerpt: as §1, §2

[5] = tested on: green foxtail (Setaria viridis L.); assay: as above; settings: 21st to 22nd day after application, visual, read-out: Growth inhibition rate (%) Green foxtail
Excerpt: as §1, §2

rice (Oryza sativa L.) [6] = assay: as above; settings: 21st to 22nd day after application, visual, read-out: Growth inhibition rate (%) Rice
Excerpt: as §1, §2

corn (Zea mays L.) [7] = assay: as above; settings: 21st to 22nd day after application, visual, read-out: Growth inhibition rate (%) Corn
Excerpt: as §1, §2

[8] = tested on: barnyardgrass (Echinochloa crus-galli L.); assay: as above; settings: 21st to 22nd day after application, visual, read-out: Growth inhibition rate (%) Barnyardgrass
Excerpt: as §1, §2

[9] = tested on: soybean (Glycine max Merr.); assay: as above; settings: 21st to 22nd day after application, visual, read-out: Growth inhibition rate (%) Soybean
Excerpt: as §1, §2

[10] = tested on: crabgrass (Digitaria sanquinalis L.); assay: as above; settings: 21st to 22nd day after application, visual, read-out: Growth inhibition rate (%) Crabgrass
Excerpt: as §1, §2

[11] = tested on: Japanese bulrush (Scirpus juncoides); assay: Test Example 3, paddy field pot, application to irrigated water; settings: Schoenoplectiella juncoides, applied at 0.5 leaf stage, 13th to 17th day after application, read-out: Growth inhibition rate (%) Japanese bulrush
Excerpt: (§3) Paddy field soil was put into a 1/1,000,000 hectare pot, and seeds of barnyardgrass (Echinochloa oryzicola vasing.) and Japanese bulrush (Scirpus juncoides) were sown and lightly covered with soil. Then, pot was left to stand in a greenhouse in a state irrigated to a water depth of from 0.5 to 1 cm, and next day or two days later, tubers of Japanese ribbon waparo (Sagittaria pygmaea) were planted. Then, the irrigated water depth was maintained to be from 3 to 4 cm, and when barnyardgrass and Japanese bulrush reached 0.5 leaf stage, and Japanese ribbon waparo reached primary leaf stage, a water diluted solution of a wettable powder or an emulsifiable concentrate of the compound of the present invention prepared in accordance with a conventional preparation method, was uniformly dropwise applied by a pipette so that the amount of active ingredients would be a prescribed amount. Further, paddy field soil was put into a 1/1,000,000 pot, followed by soil puddling to an irrigated water depth of from 3 to 4 cm. Next day, rice (Oryza sativa L.) (var.: Nihonbare) of two leaf stage was transplanted in a transplantation depth of 3 cm. On the 4th day after transplantation, the compound of the present invention was applied in the same manner as described above.
(§4) On the 13th to 17th day after application, the state of growth of barnyardgrass, Japanese bulrush and Japanese ribbon waparo was visually observed, and on the 20th to 23rd day after application, the state of growth of rice was visually observed, and the herbicidal effect was evaluated by a growth inhibition rate (%) of 0 (equivalent to the non-treated area) to 100% (complete kill).

[12] = tested on: barnyardgrass (Echinochloa oryzicola vasing.); assay: as above; settings: applied at 0.5 leaf stage, 13th to 17th day after application, read-out: Growth inhibition rate (%) barnyard grass
Excerpt: as §3, §4

[13] = tested on: Japanese ribbon waparo (Sagittaria pygmaea); assay: as above; settings: applied at primary leaf stage, 13th to 17th day after application, read-out: Growth inhibition rate (%) Japanese ribbon waparo
Excerpt: as §3, §4

[14] = tested on: rice (Oryza sativa L.) (var.: Nihonbare); assay: Test Example 3, paddy field pot, transplanted rice; settings: applied 4th day after transplantation, 20th to 23rd day after application, read-out: Growth inhibition rate (%) Rice
Excerpt: as §3, §4

[15] = tested on: redroot pigweed (Amaranthus retroflexus L.); assay: Test Example 1, foliar treatment in upland pots; settings: 20th to 22nd day after application, visual, read-out: Growth inhibition rate (%) Redroot pigweed
Excerpt: (§5) Upland field soil was put into a 1/170,000 hectare pot, and seeds of various plants were sown. When the respective plants reached predetermined leaf stage ((1) barnyardgrass (Echinochloa crus-galli L.): 1.2 to 3.0 leaf stage, (2) crabgrass (Digitaria sanguinalis L.): 1.0 to 3.0 leaf stage, (3) green foxtail (Setaria viridis L.): 1.5 to 3.0 leaf stage, (4) redroot pigweed (Amaranthus retroflexus L.): cotyledon stage to 1.5 leaf stage, (5) prickly sida (Sida spinosa L.): cotyledon stage to 2.0 leaf stage, (6) velvetleaf (Abutilon theophrasti MEDIC.): cotyledon stage to 1.3 leaf stage, (7) rice (Oryza sativa L.): 1.2 to 2.5 leaf stage, (8) corn (Zea mays L.): 2.0 to 3.3 leaf stage, (9) soybean (Glycine max Merr.): primary leaf stage to 0.3 leaf stage) and wheat (Triticum spp.): 2.0 to 3.0 leaf stage, wettable powders or emulsifiable concentrates of the compounds of the present invention prepared in accordance with a conventional preparation method, were weighed so that the active ingredients became the prescribed amounts, and diluted with water in an amount corresponding to 500 liter per 1 hectare (containing 0.1 vol % of an agricultural spreader (“KUSARINOH”, manufactured by NIHON NOHYAKU CO., LTD.)). The spray solutions thus prepared were applied for foliar treatment by a small sprayer.
(§6) On the 20th to 22nd day after application, the state of growth of the respective plants was visually observed, and the herbicidal effect was evaluated by a growth inhibition rate (%) of 0 (equivalent to the non-treated area) to 100% (complete kill).

wheat (Triticum spp.) [16] = assay: Test Example 1, foliar treatment in upland pots; settings: 20th to 22nd day after application, visual, read-out: Growth inhibition rate (%) Wheat
Excerpt: as §5, §6

[17] = tested on: crabgrass (Digitaria sanguinalis L.); assay: Test Example 1, foliar treatment in upland pots; settings: 20th to 22nd day after application, visual, read-out: Growth inhibition rate (%) Crabgrass
Excerpt: as §5, §6

[18] = tested on: velvetleaf (Abutilon theophrasti MEDIC.); assay: Test Example 1, foliar treatment in upland pots; settings: 20th to 22nd day after application, visual, read-out: Growth inhibition rate (%) Velvetleaf
Excerpt: as §5, §6

[19] = tested on: green foxtail (Setaria viridis L.); assay: Test Example 1, foliar treatment in upland pots; settings: 20th to 22nd day after application, visual, read-out: Growth inhibition rate (%) Green foxtail
Excerpt: as §5, §6

rice (Oryza sativa L.) [20] = assay: Test Example 1, foliar treatment in upland pots; settings: 20th to 22nd day after application, visual, read-out: Growth inhibition rate (%) Rice
Excerpt: as §5, §6

[21] = tested on: barnyardgrass (Echinochloa crus-galli L.); assay: Test Example 1, foliar treatment in upland pots; settings: 20th to 22nd day after application, visual, read-out: Growth inhibition rate (%) Barnyardgrass
Excerpt: as §5, §6

[22] = tested on: soybean (Glycine max Merr.); assay: Test Example 1, foliar treatment in upland pots; settings: 20th to 22nd day after application, visual, read-out: Growth inhibition rate (%) Soybean
Excerpt: as §5, §6

[23] = tested on: prickly sida (Sida spinosa L.); assay: Test Example 1, foliar treatment in upland pots; settings: 20th to 22nd day after application, visual, read-out: Growth inhibition rate (%) Prickly sida
Excerpt: as §5, §6

corn (Zea mays L.) [24] = assay: Test Example 1, foliar treatment in upland pots; settings: 20th to 22nd day after application, visual, read-out: Growth inhibition rate (%) Corn
Excerpt: as §5, §6

## COCc1c(S(C)(=O)=O)ccc(C(=O)c2cnn(C)c2OC(C)OC(=O)OC)c1C (stereo not shown) [Compound No. 1-3, 1-(4-(3-(Methoxymethyl)-2-methyl-4-(methylsulfonyl)benzoyl)-1-methyl-1H-pyrazol-5-yloxy)ethyl methyl carbonate]
[1]
  inhibition at 250 g/ha: 98%
Wheat (Triticum spp.) [2]
  inhibition at 250 g/ha: 10%
[3]
  inhibition at 250 g/ha: 100%
[4]
  inhibition at 250 g/ha: 95%
[5]
  inhibition at 250 g/ha: 98%
Rice (Oryza sativa L.) [6]
  inhibition at 250 g/ha: 98%
Corn (Zea mays L.) [7]
  inhibition at 250 g/ha: 20%
[8]
  inhibition at 250 g/ha: 98%
[9]
  inhibition at 250 g/ha: 60%
[10]
  inhibition at 250 g/ha: 98%
[11]
  inhibition at 63 g/ha: 70%
[12]
  inhibition at 63 g/ha: 100%
[13]
  inhibition at 63 g/ha: 70%
[14]
  inhibition at 63 g/ha: 40%
[15]
  inhibition at 7 g/ha: 80%
Wheat (Triticum spp.) [16]
  inhibition at 7 g/ha: 0%
[17]
  inhibition at 7 g/ha: 95%
[18]
  inhibition at 7 g/ha: 75%
[19]
  inhibition at 7 g/ha: 80%
Rice (Oryza sativa L.) [20]
  inhibition at 7 g/ha: 60%
[21]
  inhibition at 7 g/ha: 90%
[22]
  inhibition at 7 g/ha: 70%

## CCn1ncc(C(=O)c2ccc(S(C)(=O)=O)c(C(=O)OC)c2C)c1OC(C)OC(=O)OC (stereo not shown) [Compound No. 2-2, Methyl 3-(5-(1-(methoxycarbonyloxy)ethoxy)-1-ethyl-1H-pyrazole-4-carbonyl)-2-methyl-6-(methylsulfonyl)benzoate]
[11]
  inhibition at 63 g/ha: 80%
[12]
  inhibition at 63 g/ha: 100%
[13]
  inhibition at 63 g/ha: 90%
[14]
  inhibition at 63 g/ha: 80%
[15]
  inhibition at 7 g/ha: 98%
Wheat (Triticum spp.) [16]
  inhibition at 7 g/ha: 0%
[17]
  inhibition at 7 g/ha: 80%
[18]
  inhibition at 7 g/ha: 95%
[23]
  inhibition at 7 g/ha: 70%
[19]
  inhibition at 7 g/ha: 80%
Rice (Oryza sativa L.) [20]
  inhibition at 7 g/ha: 50%
Corn (Zea mays L.) [24]
  inhibition at 7 g/ha: 0%
[21]
  inhibition at 7 g/ha: 98%

## CCOCc1c(S(C)(=O)=O)ccc(C(=O)c2cnn(C)c2OC(C)OC(=O)OCC)c1C (stereo not shown) [Compound No. 1-4, 1-(4-(3-(Ethoxymethyl)-2-methyl-4-(methylsulfonyl)benzoyl)-1-methyl-1H-pyrazol-5-yloxy)ethyl ethyl carbonate]
[1]
  inhibition at 250 g/ha: 98%
Wheat (Triticum spp.) [2]
  inhibition at 250 g/ha: 0%
[3]
  inhibition at 250 g/ha: 100%
[4]
  inhibition at 250 g/ha: 90%
[5]
  inhibition at 250 g/ha: 80%
Rice (Oryza sativa L.) [6]
  inhibition at 250 g/ha: 60%
Corn (Zea mays L.) [7]
  inhibition at 250 g/ha: 0%
[8]
  inhibition at 250 g/ha: 98%
[9]
  inhibition at 250 g/ha: 40%
[10]
  inhibition at 250 g/ha: 80%
[11]
  inhibition at 63 g/ha: 60%
[12]
  inhibition at 63 g/ha: 100%
[13]
  inhibition at 63 g/ha: 70%
[14]
  inhibition at 63 g/ha: 20%
[15]
  inhibition at 7 g/ha: 80%
Wheat (Triticum spp.) [16]
  inhibition at 7 g/ha: 0%
[17]
  inhibition at 7 g/ha: 95%
[18]
  inhibition at 7 g/ha: 80%
[19]
  inhibition at 7 g/ha: 75%
Corn (Zea mays L.) [24]
  inhibition at 7 g/ha: 0%
[21]
  inhibition at 7 g/ha: 95%
[22]
  inhibition at 7 g/ha: 80%

## CCOCc1c(S(C)(=O)=O)ccc(C(=O)c2cnn(C)c2OC(C)OC(=O)OC)c1C (stereo not shown) [Compound No. 1-1, 1-(4-(3-(Ethoxymethyl)-2-methyl-4-(methylsulfonyl)benzoyl)-1-methyl-1H-pyrazol-5-yloxy)ethyl methyl carbonate]
[1]
  inhibition at 250 g/ha: 90%
Wheat (Triticum spp.) [2]
  inhibition at 250 g/ha: 20%
[3]
  inhibition at 250 g/ha: 98%
[4]
  inhibition at 250 g/ha: 90%
[5]
  inhibition at 250 g/ha: 98%
Rice (Oryza sativa L.) [6]
  inhibition at 250 g/ha: 95%
Corn (Zea mays L.) [7]
  inhibition at 250 g/ha: 10%
[8]
  inhibition at 250 g/ha: 100%
[9]
  inhibition at 250 g/ha: 20%
[10]
  inhibition at 250 g/ha: 100%
[11]
  inhibition at 63 g/ha: 70%
[12]
  inhibition at 63 g/ha: 100%
[13]
  inhibition at 63 g/ha: 90%
[14]
  inhibition at 63 g/ha: 10%
[15]
  inhibition at 7 g/ha: 60%
Wheat (Triticum spp.) [16]
  inhibition at 7 g/ha: 0%
[17]
  inhibition at 7 g/ha: 90%
[18]
  inhibition at 7 g/ha: 50%
[19]
  inhibition at 7 g/ha: 60%
Rice (Oryza sativa L.) [20]
  inhibition at 7 g/ha: 20%
[21]
  inhibition at 7 g/ha: 95%
[22]
  inhibition at 7 g/ha: 70%
